Article PMC1764434 (PLoS Clinical Trials, 2007)
Several values for one entry are separate records, joined by “and”; a condition that tells them apart may be missing. Equal values may be shown once. Entries after “also recorded” stand apart in the source; their conditions may differ. Read-outs that look alike come from different tables or passages of the source.

What was measured:
[1] = Blood pharmacokinetics after oral dosing (fluorescence HPLC, noncompartmental WinNonlin model); type: in vivo, human; conditions: for detection of di-dealkylated metabolite in the blood: after oral AQ-13 or CQ; for Cmax / Vd/F / MRT / Tmax / half-life / AUC: human
Procedure: Study drugs were administered in the GCRC on an empty stomach between 8 and 9 AM the morning after admission (after fasting for ≥ 10 h).

[2] = Urinary excretion and renal clearance (24-hour urine collections, days 1-3); conditions: for second (di-dealkylated) metabolite/parent ratio in urine: AQ-73/AQ-13 and BDCQ/CQ; for detection of di-dealkylated metabolite in urine: urine collections days 1-3 after dosing
healthy volunteers [3] = assay: Post-dose clinical and laboratory follow-up (hematology, chemistry, organ toxicity); type: in vivo, human
healthy volunteers [4] = assay: Clinical adverse events (weekly diaries, blinded relatedness assessment), Phase I RCT; type: in vivo, human
Procedure: Adverse events (AEs) were recorded in weekly diaries provided to each volunteer. The relatedness of these AEs to the study drugs was assessed by two physicians (FM, CH) based on temporal association and biological plausibility using five categories: definitely not, unlikely, possibly, probably, and definitely related. The AEs reported in this manuscript include all AEs assessed as possibly, probably, or definitely related.
Quantitative data are presented as the mean ± standard deviation or as median and range, as appropriate. […] Due to a lack of normality, the nonparametric Mann-Whitney U test was used to compare independent samples; the Wilcoxon or Friedman test (whichever was appropriate) was used to compare repeated measures of the QTc interval. All statistical tests were two-sided with an α (significance level) of 0.05. Analyses were performed using the SPSS 11.0 statistical software (SPSS, Chicago, Illinois, United States). All analyses were based on allocation by intent-to-treat.

QT interval = assay: Effects on the QT interval (ECG and Holter recordings, Bazett correction); conditions: for QTc interval, Baseline: before dosing
Procedure: The effects of the study drugs on the QT interval were assessed by comparing QT intervals before dosing with QT intervals 4 h after dosing, and at the 2 wk follow-up. […] QT intervals were measured manually and electronically (Rozinn Electronics, Glendale, New York, United States). […] Correction of the QT interval for heart rate (i.e., QTc) was performed using Bazett's formula [27].

[5] = days 1-3, 1,750 mg AQ-13 / 1,500 mg CQ
[6] = 1,500 mg CQ (n = 15) / 1,750 mg AQ-13 (n = 14)
[7] = 100, 300 mg doses, n = 16 per drug
[8] = 600/700 mg, AQ-13 n = 25, CQ n = 24
[9] = all doses combined, 63 volunteers per drug
[10] = 1,750 mg AQ-13, 1,500 mg CQ, mean ± SD
[11] = 600/700 mg AQ-13, 600 mg CQ, mean ± SD

In the case of `CC(CCCN)Nc1ccnc2cc(Cl)ccc12` (centres unmarked) [BDCQ], the “detection of di-dealkylated metabolite in the blood” value [1] is reported as “not detected in the blood”, the “second (di-dealkylated) metabolite/parent ratio in urine” value ([2]; days 1-3) is reported as 2.6% and the “detection of di-dealkylated metabolite in urine” value [2] is reported as “identified in urine collections”.

With `NCCCNc1ccnc2cc(Cl)ccc12` [AQ-73] the “detection of di-dealkylated metabolite in the blood” value [1] was “not detected in the blood”, the “second (di-dealkylated) metabolite/parent ratio in urine” value ([2]; days 1-3) was 5.2% and the “detection of di-dealkylated metabolite in urine” value [2] was “identified in urine collections”.

In the case of `CCN(CC)CCCC(C)Nc1ccnc2cc(Cl)ccc12` (centres unmarked) [CQ, chloroquine], the “hematologic or chemical toxicities on repeat laboratory testing” value (healthy volunteers [3]; 4 d after drug administration) is reported as “no hematologic or chemical toxicities”, the organ toxicity (healthy volunteers [3]; any dose tested, inpatient exams, 2 and 4 wk follow-up) is reported as “No hematologic, hepatic, renal, or other organ toxicity was observed; also recorded: no clinical evidence for end-organ toxicity” and the “blood level one hour after dosing as % of Cmax” value ([1]; 600 mg oral dose) is reported as 72%. The Cl/F ([1]; 1,500 mg oral over 3 d, median (range)) was 9.5 L/h, the “median oral clearance (range of medians across dose levels)” value ([1]; 600 and 1,500/1,750 mg doses) was 9.5 to 11.3 L/h and the Cmax ([1]; in vivo, 1500 mg, 1,500 mg oral over 3 d (600+600+300 mg), whole blood, median (range), read-out: Cmax) was 3400 nM. The Vd/F ([1]; in vivo, 1500 mg, 1,500 mg oral over 3 d, median (range)) was 3720 L, the MRT ([1]; in vivo, 1500 mg, 1,500 mg oral over 3 d, median (range), read-out: MRT (converted)) was 16 days and the Tmax ([1]; in vivo, 1500 mg, 1,500 mg oral over 3 d, median (range), read-out: Tmax) was 1.1 days. It also gave a half-life ([1]; in vivo, 1500 mg, 1,500 mg oral over 3 d, median (range), read-out: t½ (converted)) of 13.2 days, an AUC ([1]; in vivo, po, 600 mg, single oral 600 mg dose, whole blood, median (range), read-out: AUCw1 (partial AUC for week 1)) of 90 µM·h and an AUC ([1]; in vivo, po, 600 mg, single oral 600 mg dose, whole blood, median (range), read-out: AUCτ (total area under the curve)) of 241 µM·h. It also gave an AUC ([1]; in vivo, po, 1500 mg, 1,500 mg oral over 3 d, median (range), read-out: AUCw1) of 312 µM·h, an AUC ([1]; in vivo, po, 1500 mg, 1,500 mg oral over 3 d, median (range), read-out: AUCτ) of 636 µM·h and a Tmax ([1]; in vivo, 1,750 mg AQ-13 / 1,500 mg CQ, 27–28 h after the first dose, read-out: time of peak blood concentration after the second dose) of 0.125 to 0.167 days. The half-life ([1]; in vivo, 600 and 1,500 mg oral doses, read-out: estimate of the terminal elimination t1/2 (across doses)) was 14 to 24 days, the Cmax ([1]; in vivo, single oral 600 mg dose (CQ base equivalent), whole blood, median (range), read-out: Cmax) was 1800 nM and the Vd/F ([1]; in vivo, single oral 600 mg dose, median (range)) was 8670 L. For the same molecule, the MRT ([1]; in vivo, single oral 600 mg dose, whole blood, median (range), read-out: MRT (converted)) was 24.7 days, the Tmax ([1]; in vivo, single oral 600 mg dose, whole blood, median (range), read-out: Tmax) was 0.125 days and the half-life ([1]; in vivo, single oral 600 mg dose, whole blood, median (range), read-out: t½ (terminal elimination half-life) (converted)) was 23.3 days. For the same molecule, the linearity of pharmacokinetics ([1]; oral doses in healthy volunteers) was “linear pharmacokinetics”, the “Cl/F (apparent oral clearance)” value ([1]; single oral 600 mg dose, median (range)) was 11.3 (5.7–20.3) l/h and the “amount of unchanged drug recovered from 24 hour urine collections” value [2, 5] was 829 µmol. The “unchanged drug recovered from 24 hour urine collections, % of total oral dose” value [2, 5] was 18.0%, the CL renal ([2]; human, in vivo, po, 1500 mg) was 100 mL/min and the “related adverse events: None” value (healthy volunteers [4]; 10 mg dose, n = 8 per drug) was 0. The “Abdominal pain, number (%)” value (healthy volunteers [4]; [6]) was 0, the “Blurred vision, number (%)” value (healthy volunteers [4]; [6]) was 2 (13%) and the “Diarrhea, number (%)” value (healthy volunteers [4]; [6]) was 4 (27%). The “Difficulty focusing/visual floating objects, number (%)” value (healthy volunteers [4]; [6]) was 3 (20%), the “Lightheadedness/Dizziness, number (%)” value (healthy volunteers [4]; [6]) was 4 (27%) and the “Loss of appetite, number (%)” value (healthy volunteers [4]; [6]) was 2 (13%). For the same molecule, the “Nausea, number (%)” value (healthy volunteers [4]; [6]) was 5 (33%), the “Vomiting, number (%)” value (healthy volunteers [4]; [6]) was 2 (13%) and the “Weakness/fatigue, number (%)” value (healthy volunteers [4]; [6]) was 0. For the same molecule, the “Headache, number (%)” value (healthy volunteers [4]; 1,500 mg CQ (n = 15) / 1,750 mg AQ-13 (n = 14) over 3 d) was 4 (27%), the “Headache, volunteers with related AE, number (%)” value (healthy volunteers [4]; [7]) was 1 (6%) and the “Lightheadedness/Dizziness, number (%)” value (healthy volunteers [4]; [7]) was 1 (6%). For the same molecule, the “Nausea, number (%)” value (healthy volunteers [4]; [7]) was 0, the “Abdominal pain, number (%)” value (healthy volunteers [4]; [8]) was 0 and the “Diarrhea, number (%)” value (healthy volunteers [4]; [8]) was 2 (8%). The “Ear symptoms, number (%)” value (healthy volunteers [4]; [8]) was 2 (8%), the “Headache, number (%)” value (healthy volunteers [4]; [8]) was 5 (21%) and the “Lightheadedness/Dizziness, number (%)” value (healthy volunteers [4]; [8]) was 3 (13%). The “Loss of appetite, number (%)” value (healthy volunteers [4]; [8]) was 3 (13%), the “Nausea, number (%)” value (healthy volunteers [4]; [8]) was 1 (4%) and the “Vomiting, number (%)” value (healthy volunteers [4]; [8]) was 0. For the same molecule, the “drug-related GI symptoms, number of reports” value (healthy volunteers [4]; all doses combined) was 20 reports, the “drug-related lightheadedness/dizziness, volunteers/total” value (healthy volunteers [4]; [9]) was 8/63 and the “volunteers reporting one or more GI symptoms/total” value (healthy volunteers [4]; [9]) was 13/63. For the same molecule, the “QTc interval of individual volunteers who developed QTc greater than 450 ms” value (QT interval; 600 mg CQ, two females) was 467 ms and 457 ms, the “mean QTc prolongation after the first dose (day 1)” value (QT interval; 1,500 mg CQ (first 600 mg dose) / 1,750 mg AQ-13 (first 700 mg dose)) was 16 ms and the “additional QTc increase after the second dose (day 2)” value (QT interval; 1,500 mg CQ / 1,750 mg AQ-13) was 12 ms. For the same molecule, the “QTc interval of individual volunteers who developed QTc > 450 ms” value (QT interval; 1,500 mg CQ, 4 h after dosing on day 2, two females) was 453 ms, the “QTc interval, Baseline” value (QT interval; 1,750 mg AQ-13 (n = 13), 1,500 mg CQ (n = 14), mean ± SD) was 396 ± 21 ms and the “QTc interval, 2 wk follow-up” value (QT interval; [10]) was 412 ± 13 ms. The “QTc interval, 4–5 h post-dose (day 1)” value (QT interval; [10]) was 412 ± 22 ms, the “QTc interval, 4–5 h post-dose (day 2)” value (QT interval; [10]) was 424 ± 19 ms and 424 ± 18 ms and the “QTc interval, 4–5 h post-dose (day 3)” value (QT interval; [10]) was 417 ± 21 ms. The “mean QTc prolongation, females” value (QT interval; 1,750 mg AQ-13 / 1,500 mg CQ) was 28 ms, the “mean QTc prolongation, males” value (QT interval; 1,750 mg AQ-13 / 1,500 mg CQ) was 31 ms and the “mean increase in the QTc interval from baseline” value (QT interval; 1,750 mg AQ-13 / 1,500 mg CQ, 4 h after the second dose on day 2) was 28 ms. The “QTc interval, Baseline” value (QT interval; 600/700 mg AQ-13 (n = 25), 600 mg CQ (n = 24), mean ± SD) was 406 ± 19 ms, the “QTc interval, 2 wk follow-up” value (QT interval; [11]) was 403 ± 15 ms and the “QTc interval, 4–5 h post-dose (day 1)” value (QT interval; [11]) was 421 ± 20 ms. For the same molecule, the “maximal prolongation of the QTc interval from baseline at the individual level” value (QT interval; 600/700 mg dose) was 54 ms, the “maximal prolongation of the QTc interval from baseline at the individual level” value (QT interval; 1,500/1,750 mg dose) was 63 ms and the “mean increase in the QTc interval from baseline, females” value (QT interval; 4 h after 600 mg CQ or 600/700 mg AQ-13) was 22 ms. The “mean QTc interval change from baseline, males” value (QT interval; 4 h after 600 mg CQ or 600/700 mg AQ-13, not significant) was 7 ms, the “mean increase in the QTc interval from baseline” value (QT interval; 4 h after 600 mg CQ or 600 or 700 mg AQ-13) was 15 ms and 16 ms and the “arrhythmias or other cardiac AEs” value (QT interval; all doses) was “no arrhythmias or other cardiac AEs; also recorded: no cardiac AEs”.

For `CCNCCCC(C)Nc1ccnc2cc(Cl)ccc12` (centres unmarked) [MDCQ, mono-desethylchloroquine], the “time after dosing at which metabolite/parent ratio reached 1.0” value ([1]; 600 mg CQ, MDCQ/CQ ratio) was 2–3 wk, the “metabolite/parent ratio in blood at the Cmax of the parent drug” value ([1]; 600 mg dose, AQ-72/AQ-13 (mean) or MDCQ/CQ) was 0.26 and the “time to appearance of metabolite in the blood” value ([1]; after oral 600 or 700 mg AQ-13 or 600 mg CQ) was no more than 1 h. It also gave an AUC ([1]; whole blood, oral, 1500 mg, after 1,500 mg CQ over 3 d, median (range), read-out: AUCτ of metabolite) of 330 µM·h, an MRT ([1]; whole blood, oral, 1500 mg, after 1,500 mg CQ over 3 d, median (range), read-out: MRT of metabolite (converted)) of 29 days and a half-life ([1]; whole blood, oral, 1500 mg, after 1,500 mg CQ over 3 d, median (range), read-out: t1/2 of metabolite (converted)) of 21.8 days. It also gave an AUC ([1]; whole blood, po, 600 mg, after 600 mg oral dose of parent drug (CQ or AQ-13), whole blood, median (range), read-out: AUCτ of metabolite) of 205 µM·h, an MRT ([1]; whole blood, after 600 mg oral dose of parent drug, median (range), read-out: MRT of metabolite (converted)) of 44.8 days and a half-life ([1]; whole blood, after 600 mg oral dose of parent drug, median (range), read-out: t1/2 of metabolite (converted)) of 31.2 days. The Cmax ([1]; whole blood, after 600 mg oral dose of parent drug, median, read-out: Cmax of metabolite) was 540 nM and the “mono-dealkylated metabolite/parent ratio in urine” value ([2]; days 1-3, AQ-72/AQ-13 and MDCQ/CQ) was 22.7%.
